{"source": "paper PMC9312958", "about": "“A Novel and Selective Dopamine Transporter Inhibitor, (S)-MK-26, Promotes Hippocampal Synaptic Plasticity and Restores Effort-Related Motivational Dysfunctions” (Biomolecules, 2022)", "key": {"[1]": {"molecular_target": "T1, hDAT (Homo sapiens, UniProt Q01959)", "T1 construct": "expressed in transfected cells", "T1 sequence (Q01959 whole entry)": "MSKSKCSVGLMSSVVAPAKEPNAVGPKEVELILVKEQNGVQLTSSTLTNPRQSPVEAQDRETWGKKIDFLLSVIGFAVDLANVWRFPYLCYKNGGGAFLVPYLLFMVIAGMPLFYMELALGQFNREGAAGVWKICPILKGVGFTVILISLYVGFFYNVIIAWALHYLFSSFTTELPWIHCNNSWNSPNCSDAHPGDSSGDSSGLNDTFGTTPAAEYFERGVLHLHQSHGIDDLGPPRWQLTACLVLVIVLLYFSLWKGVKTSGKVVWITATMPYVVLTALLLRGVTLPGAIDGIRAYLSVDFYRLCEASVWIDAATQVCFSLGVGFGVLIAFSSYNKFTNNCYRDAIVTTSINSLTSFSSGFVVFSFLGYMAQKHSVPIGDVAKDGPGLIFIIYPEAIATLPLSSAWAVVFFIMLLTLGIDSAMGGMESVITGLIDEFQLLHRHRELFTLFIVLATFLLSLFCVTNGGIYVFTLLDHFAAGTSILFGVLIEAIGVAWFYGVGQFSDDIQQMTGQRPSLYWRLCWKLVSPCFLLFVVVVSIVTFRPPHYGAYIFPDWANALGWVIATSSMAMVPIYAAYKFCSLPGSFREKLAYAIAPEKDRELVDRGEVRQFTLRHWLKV", "assay": "hDAT radioligand binding assay (CHO cells, [3H]BTCP)", "method": "(§1) Binding affinity to the hDAT, hNET and hSERT expressed in CHO cells was evaluated in in vitro radioligand binding assays. Binding assays were conducted according to the standard and validated protocols under conditions defined by the contractor (Eurofins Cerep SA, Celle-’Evescault, France; study number 100054410). Antagonist radioligand assays were conducted for the human norepinephrine, the human dopamine, and the serotonin transporters (using CHO cells), using [^3H]nisoxetine (1 nM), [^3H]BTCP (4 nM), and [^3H]imipramine (2 nM) as ligands and desipramine (1 µM), BTCP (10 µM), and imipramine (10 µM) as non-specific agents, respectively (with scintillation counting as detection method)."}, "[2]": {"molecular_target": "T2, hNET (Homo sapiens, UniProt P23975)", "T2 construct": "expressed in transfected cells", "T2 sequence (P23975 whole entry)": "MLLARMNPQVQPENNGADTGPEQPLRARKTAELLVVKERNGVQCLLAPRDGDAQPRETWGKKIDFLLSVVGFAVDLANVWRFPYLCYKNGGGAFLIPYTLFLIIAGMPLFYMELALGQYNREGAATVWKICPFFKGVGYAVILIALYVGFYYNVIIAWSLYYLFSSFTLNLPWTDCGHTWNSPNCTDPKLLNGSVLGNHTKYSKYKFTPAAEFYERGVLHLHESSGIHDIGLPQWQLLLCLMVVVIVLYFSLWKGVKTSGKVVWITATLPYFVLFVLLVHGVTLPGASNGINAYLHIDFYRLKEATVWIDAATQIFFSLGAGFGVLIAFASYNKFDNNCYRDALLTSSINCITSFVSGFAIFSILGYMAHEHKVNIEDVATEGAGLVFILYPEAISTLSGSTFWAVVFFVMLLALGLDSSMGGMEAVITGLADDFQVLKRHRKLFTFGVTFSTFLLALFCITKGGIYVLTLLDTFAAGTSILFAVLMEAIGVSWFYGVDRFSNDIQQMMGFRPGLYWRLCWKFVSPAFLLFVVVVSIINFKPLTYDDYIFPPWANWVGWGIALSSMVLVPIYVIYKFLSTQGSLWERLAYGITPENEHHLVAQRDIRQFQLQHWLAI", "assay": "hNET radioligand binding assay (CHO cells, [3H]nisoxetine)", "method": "as §1"}, "[3]": {"molecular_target": "T3, hSERT (Homo sapiens, UniProt P31645)", "T3 construct": "expressed in transfected cells", "T3 sequence (P31645 whole entry)": "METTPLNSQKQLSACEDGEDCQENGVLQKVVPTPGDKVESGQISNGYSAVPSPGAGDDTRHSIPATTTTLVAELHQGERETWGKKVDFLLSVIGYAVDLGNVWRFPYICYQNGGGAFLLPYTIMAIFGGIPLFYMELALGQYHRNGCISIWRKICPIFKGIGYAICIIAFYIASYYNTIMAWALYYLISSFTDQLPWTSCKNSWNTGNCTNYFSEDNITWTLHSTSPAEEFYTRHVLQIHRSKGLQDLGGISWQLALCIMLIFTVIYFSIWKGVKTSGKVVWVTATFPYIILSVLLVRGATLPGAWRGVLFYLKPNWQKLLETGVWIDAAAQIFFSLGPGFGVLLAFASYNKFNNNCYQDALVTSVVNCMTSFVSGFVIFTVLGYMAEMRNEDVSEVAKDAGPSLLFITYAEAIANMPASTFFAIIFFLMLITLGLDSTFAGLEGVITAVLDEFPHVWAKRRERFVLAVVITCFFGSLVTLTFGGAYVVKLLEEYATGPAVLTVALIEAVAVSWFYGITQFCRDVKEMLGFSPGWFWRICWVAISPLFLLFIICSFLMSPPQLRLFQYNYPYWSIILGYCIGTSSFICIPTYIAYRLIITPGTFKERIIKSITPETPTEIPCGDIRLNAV", "assay": "Uptake inhibition assay in HEK293 cells expressing hSERT", "assay_type": "cell-based", "method": "Human embryonic kidney 293 cells (HEK293 cells) were cultivated in Dulbecco’s Modified Eagle Medium (DMEM), containing 10% heat-inactivated fetal calf serum (FCS; 100 mL/L), streptomycin (100 μg/100 mL) and penicillin ([…]). Geneticin (50 μg/mL) was added to select cells stably expressing the human isoforms of dopamine, norepinephrine and serotonin transporter (hDAT, hNET, and hSERT, respectively) as described earlier. Cell lines were maintained in culture in humidified atmosphere (37 °C, 5% CO2), and passaged when reached 80–90% confluency. Cells expressing the desired transporter were seeded the day before the experiment (40,000 cells per well) or two days before the experiments (20,000 cells per well) onto poly-D-lysine (PDL)-coated 96-well plates.\nUptake inhibition experiments were carried out as reported previously. […] Thereafter, 200 μL of Ultima Gold^TM XR scintillation cocktail (PerkinElmer, MA, USA) was added, the plates were shaken and the radioactivity accumulated into the cells determined in a Wal-lac 1450 MicroBeta TriLux Liquid Scintillation Counter & Lumi (GMI, Ramsey, MN, USA). Non- specific tritiated substrate uptake was measured in the presence of 100 μM cocaine (for hDAT and hNET) or 10 μM paroxetine (for hSERT), and subtracted from the data. […]"}, "[4]": {"molecular_target": "T3, hSERT", "assay": "hSERT radioligand binding assay (CHO cells, [3H]imipramine)", "method": "as §1"}}, "data": [{"compound": "[O-][S@@+](Cc1cncs1)C(c1cccc(Cl)c1)c1cccc(Cl)c1", "note": "[(S)-MK-26, (S)-5-(((B(3-chlorophenyl)methyl)sulphinyl)methyl)thiazole]", "values": [{"measurement": "Ki", "setting": "[1]", "result": 0.026, "unit": "µM"}, {"measurement": "binding to NET", "setting": "[2]", "result": "trifling bindings"}, {"measurement": "IC50", "setting": "[3]", "result": "> 1000", "unit": "µM"}, {"measurement": "binding to SERT", "setting": "[4]", "result": "trifling bindings"}]}]}
